From PubChem BioAssay AID256 (DTP/NCI, 2004)
Values joined by “and” are separate entries in the source; they are usually repeats but may differ in a detail not shown here. Equal entries are not always repeated. Inconclusive results and toxic doses are left out. The calls were made as follows: active = survival T/C of 150% or more; inactive = T/C below 125% in these data.

Tested on: CD2F1 mice, L1210 leukemia ip, survival T/C
Test: NCI In Vivo Anticancer Drug Screen. Data for tumor model L1210 Leukemia (intraperitoneal) in CD2F1 (CDF1) mice
Settings: higher = longer survival
Summary of the method: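 Activity against a transplanted murine tumor was judged by comparing the compound group with a vehicle group. The outcome in the treated animals was divided by that in the controls.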

[1] = endpoint: mean survival time, dose: 25.0 mg/kg/injection, schedule: Q01DX009 (ip), vehicle: saline with Tween-80
[2] = endpoint: mean survival time, dose: 50.0 mg/kg/injection, schedule: Q01DX009 (ip), vehicle: saline with Tween-80
[3] = endpoint: mean survival time, dose: 100.0 mg/kg/injection, schedule: Q01DX009 (ip), vehicle: saline with Tween-80
[4] = endpoint: mean survival time, dose: 200.0 mg/kg/injection, schedule: Q01DX009 (ip), vehicle: saline with Tween-80
[5] = endpoint: mean survival time, dose: 400.0 mg/kg/injection, schedule: Q01DX009 (ip), vehicle: saline with Tween-80
[6] = endpoint: mean survival time, dose: 100.0 mg/kg/injection, schedule: Q04DX003 (ip), vehicle: saline with Tween-80
[7] = endpoint: mean survival time, dose: 200.0 mg/kg/injection, schedule: Q04DX003 (ip), vehicle: saline with Tween-80
[8] = endpoint: mean survival time, dose: 400.0 mg/kg/injection, schedule: Q04DX003 (ip), vehicle: saline with Tween-80

Measured: T/C

Oc1c(O)c(Br)c(Br)c(Br)c1Br
inactive: endpoint: mean survival time, dose: 100.0 mg/kg/injection, schedule: Q01DX001 (ip), vehicle: other 98 % of control | endpoint: mean survival time, dose: 200.0 mg/kg/injection, schedule: Q01DX001 (ip), vehicle: other 103 % of control

CCCN(CCC)N=Nc1c(C(=O)OC)n[nH]c1C
inactive: [1] 97 % of control | [2] 102 % of control | [3] 104 % of control and 108 % of control | endpoint: mean survival time, dose: 117.0 mg/kg/injection, schedule: Q01DX009 (ip), vehicle: saline with Tween-80 122 % of control | endpoint: mean survival time, dose: 178.0 mg/kg/injection, schedule: Q01DX009 (ip), vehicle: saline with Tween-80 97 % of control

CC(Oc1ccccc1-c1ccccc1)C(=O)N(C)C (stereo not given)
inactive: endpoint: mean survival time, dose: 12.5 mg/kg/injection, schedule: Q01DX009 (ip), vehicle: saline with Tween-80 93 % of control and 102 % of control | [1] 95 % of control and 100 % of control | [2] 97 % of control and 104 % of control | [3] 97 % of control and 104 % of control | [4] 95 % of control and 102 % of control | [5] 97 % of control and 104 % of control

CCOc1nc(=O)n(C2OC(CO)C(O)C2O)s1 (stereo not given)
inactive: endpoint: mean survival time, dose: 12.5 mg/kg/injection, schedule: Q01DX005 (ip), vehicle: distilled water + Tween-80 100 % of control | endpoint: mean survival time, dose: 25.0 mg/kg/injection, schedule: Q01DX005 (ip), vehicle: distilled water + Tween-80 101 % of control | endpoint: mean survival time, dose: 50.0 mg/kg/injection, schedule: Q01DX005 (ip), vehicle: distilled water + Tween-80 101 % of control | endpoint: mean survival time, dose: 100.0 mg/kg/injection, schedule: Q01DX005 (ip), vehicle: distilled water + Tween-80 97 % of control | endpoint: mean survival time, dose: 200.0 mg/kg/injection, schedule: Q01DX005 (ip), vehicle: distilled water + Tween-80 102 % of control

COC(=O)C([NH-])c1ccccc1.COC(=O)C([NH-])c1ccccc1.[Cl][Pt+2][Cl] (stereo not given)
inactive: endpoint: median survival time, dose: 3.12 mg/kg/injection, schedule: Q04DX003 (ip), vehicle: saline 101 % of control | endpoint: median survival time, dose: 6.25 mg/kg/injection, schedule: Q04DX003 (ip), vehicle: saline 100 % of control | endpoint: median survival time, dose: 12.5 mg/kg/injection, schedule: Q04DX003 (ip), vehicle: saline 100 % of control | endpoint: median survival time, dose: 25.0 mg/kg/injection, schedule: Q04DX003 (ip), vehicle: saline 101 % of control | endpoint: median survival time, dose: 50.0 mg/kg/injection, schedule: Q04DX003 (ip), vehicle: saline 101 % of control | endpoint: median survival time, dose: 100.0 mg/kg/injection, schedule: Q04DX003 (ip), vehicle: saline 103 % of control

S=C(Nc1ccc(Cl)cc1)Nc1ccc(Cc2ccc(NC(=S)Nc3ccc(Cl)cc3)cc2)cc1
inactive: endpoint: mean survival time, dose: 100.0 mg/kg/injection, schedule: Q01DX001 (ip), vehicle: Klucel (hydroxypropylcellulose) (HPC) 93 % of control | endpoint: mean survival time, dose: 200.0 mg/kg/injection, schedule: Q01DX001 (ip), vehicle: Klucel (hydroxypropylcellulose) (HPC) 92 % of control | endpoint: mean survival time, dose: 400.0 mg/kg/injection, schedule: Q01DX001 (ip), vehicle: Klucel (hydroxypropylcellulose) (HPC) 93 % of control

CC(CO)(CO)[N+](=O)[O-]
inactive: endpoint: mean survival time, dose: 100.0 mg/kg/injection, schedule: Q01DX009 (ip), vehicle: saline 98 % of control | endpoint: mean survival time, dose: 200.0 mg/kg/injection, schedule: Q01DX009 (ip), vehicle: saline 102 % of control | endpoint: mean survival time, dose: 400.0 mg/kg/injection, schedule: Q01DX009 (ip), vehicle: saline 104 % of control

COc1ccc(OC)c(NC(=O)N2CCCC(C)C2)c1 (stereo not given)
inactive: endpoint: mean survival time, dose: 88.0 mg/kg/injection, schedule: Q01DX009 (ip), vehicle: other 95 % of control | endpoint: mean survival time, dose: 100.0 mg/kg/injection, schedule: Q01DX009 (ip), vehicle: other 124 % of control | endpoint: mean survival time, dose: 133.0 mg/kg/injection, schedule: Q01DX009 (ip), vehicle: other 95 % of control | endpoint: mean survival time, dose: 300.0 mg/kg/injection, schedule: Q01DX009 (ip), vehicle: other 95 % of control

CCCC(C)C1C(=O)N(C)C(=O)N(C)C1=O (stereo not given)
inactive: endpoint: mean survival time, dose: 75.0 mg/kg/injection, schedule: Q01DX001 (ip), vehicle: saline 104 % of control | endpoint: mean survival time, dose: 150.0 mg/kg/injection, schedule: Q01DX001 (ip), vehicle: saline 103 % of control | endpoint: mean survival time, dose: 300.0 mg/kg/injection, schedule: Q01DX001 (ip), vehicle: saline 98 % of control

COc1cccc2c1[C@H]1CO[C@H]3C4C[C@H](C(=O)O)C([C@@H](C2)N13)N4C (stereo not given in full)
inactive: endpoint: median survival time, dose: 0.31 mg/kg/injection, schedule: Q01DX005 (ip), vehicle: water 90 % of control | endpoint: median survival time, dose: 0.62 mg/kg/injection, schedule: Q01DX005 (ip), vehicle: water 101 % of control | endpoint: median survival time, dose: 1.25 mg/kg/injection, schedule: Q01DX005 (ip), vehicle: water 102 % of control | endpoint: median survival time, dose: 2.5 mg/kg/injection, schedule: Q01DX005 (ip), vehicle: water 112 % of control | endpoint: median survival time, dose: 5.0 mg/kg/injection, schedule: Q01DX005 (ip), vehicle: water 121 % of control

COC1OC(CN2C(=O)c3ccccc3C2=O)C2OC(C)(C)OC12 (stereo not given)
inactive: [3] 98 % of control | [4] 94 % of control | [5] 98 % of control

CC(CCC(=O)c1ccccc1)c1ccc2ccccc2c1 (stereo not given)
inactive: endpoint: mean survival time, dose: 100.0 mg/kg/injection, schedule: Q01DX009 (ip), vehicle: Klucel (hydroxypropylcellulose) (HPC) 92 % of control | endpoint: mean survival time, dose: 100.0 mg/kg/injection, schedule: Q04DX003 (ip), vehicle: Klucel (hydroxypropylcellulose) (HPC) 106 % of control | endpoint: mean survival time, dose: 200.0 mg/kg/injection, schedule: Q01DX009 (ip), vehicle: Klucel (hydroxypropylcellulose) (HPC) 100 % of control | endpoint: mean survival time, dose: 200.0 mg/kg/injection, schedule: Q04DX003 (ip), vehicle: Klucel (hydroxypropylcellulose) (HPC) 104 % of control | endpoint: mean survival time, dose: 400.0 mg/kg/injection, schedule: Q01DX009 (ip), vehicle: Klucel (hydroxypropylcellulose) (HPC) 96 % of control | endpoint: mean survival time, dose: 400.0 mg/kg/injection, schedule: Q04DX003 (ip), vehicle: Klucel (hydroxypropylcellulose) (HPC) 97 % of control

Cc1ccc(S(=O)(=O)OCC(OS(=O)(=O)c2ccc(C)cc2)C(O)C(O)C(O)CO)cc1 (stereo not given)
inactive: [6] 97 % of control | [7] 91 % of control | [8] 91 % of control

Oc1ccccc1C=NCC[N-]CCN=Cc1ccccc1O.[Co]
inactive: endpoint: mean survival time, dose: 12.5 mg/kg/injection, schedule: Q01DX009 (ip), vehicle: saline 115 % of control | endpoint: mean survival time, dose: 12.5 mg/kg/injection, schedule: Q04DX003 (ip), vehicle: saline 107 % of control | endpoint: mean survival time, dose: 25.0 mg/kg/injection, schedule: Q01DX009 (ip), vehicle: saline 103 % of control | endpoint: mean survival time, dose: 25.0 mg/kg/injection, schedule: Q04DX003 (ip), vehicle: saline 100 % of control | endpoint: mean survival time, dose: 50.0 mg/kg/injection, schedule: Q01DX009 (ip), vehicle: saline 97 % of control | endpoint: mean survival time, dose: 50.0 mg/kg/injection, schedule: Q04DX003 (ip), vehicle: saline 103 % of control | endpoint: mean survival time, dose: 100.0 mg/kg/injection, schedule: Q04DX003 (ip), vehicle: saline 107 % of control

CCCc1nc(N)nc(N)n1
inactive: [2] 104 % of control | [3] 104 % of control | [4] 116 % of control

COC(=O)C(CCCCN)NC(=O)c1ccccc1 (stereo not given)
inactive: [6] 101 % of control | [7] 103 % of control | [8] 101 % of control

COC(OC)C1C=CC=CC=C1
inactive: endpoint: mean survival time, dose: 100.0 mg/kg/injection, schedule: Q04DX003 (ip), vehicle: saline sonified 92 % of control | endpoint: mean survival time, dose: 200.0 mg/kg/injection, schedule: Q04DX003 (ip), vehicle: saline sonified 94 % of control | endpoint: mean survival time, dose: 400.0 mg/kg/injection, schedule: Q04DX003 (ip), vehicle: saline sonified 90 % of control

COC1OC(CCl)C(Cl)C(OC)C1OC (stereo not given)
inactive: endpoint: mean survival time, dose: 100.0 mg/kg/injection, schedule: Q01DX001 (ip), vehicle: saline with Tween-80 96 % of control | endpoint: mean survival time, dose: 200.0 mg/kg/injection, schedule: Q01DX001 (ip), vehicle: saline with Tween-80 91 % of control | endpoint: mean survival time, dose: 400.0 mg/kg/injection, schedule: Q01DX001 (ip), vehicle: saline with Tween-80 87 % of control

COc1cc(NC(=O)CC(C)=O)c(OC)cc1Cl
inactive: [3] 96 % of control | [4] 94 % of control | [5] 91 % of control

N#C[Se-].c1ccc([Te+](c2ccccc2)c2ccccc2)cc1
inactive: endpoint: median survival time, dose: 1.56 mg/kg/injection, schedule: Q01DX009 (ip), vehicle: Klucel (hydroxypropylcellulose) (HPC) 109 % of control | endpoint: median survival time, dose: 3.12 mg/kg/injection, schedule: Q01DX009 (ip), vehicle: Klucel (hydroxypropylcellulose) (HPC) 104 % of control | endpoint: median survival time, dose: 6.25 mg/kg/injection, schedule: Q01DX009 (ip), vehicle: Klucel (hydroxypropylcellulose) (HPC) 105 % of control | endpoint: median survival time, dose: 12.5 mg/kg/injection, schedule: Q01DX009 (ip), vehicle: Klucel (hydroxypropylcellulose) (HPC) 103 % of control
